Literature values as cited in patent publication US20090215859A1, “Compositions and methods for modulating dhr96” (priority 2004, published 2009).

How the values were obtained:
GAL4-USP fusion protein = target: T1, GAL4-USP fusion protein (Drosophila melanogaster, UniProt P20153+P34021); details: dependent on its EcR partner; cited from earlier work
T1 construct: host or cells: tissues dissected from transgenic Drosophila larvae
T1 sequence (P20153 239-498 limits assumed): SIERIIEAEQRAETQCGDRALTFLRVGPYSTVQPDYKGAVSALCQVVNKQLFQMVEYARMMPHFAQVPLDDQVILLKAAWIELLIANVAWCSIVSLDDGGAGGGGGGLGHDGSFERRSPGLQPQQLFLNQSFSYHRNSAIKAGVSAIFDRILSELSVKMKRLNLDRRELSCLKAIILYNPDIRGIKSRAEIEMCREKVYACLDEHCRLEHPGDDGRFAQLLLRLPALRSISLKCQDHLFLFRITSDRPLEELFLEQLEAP
T1 sequence (P34021 1-878): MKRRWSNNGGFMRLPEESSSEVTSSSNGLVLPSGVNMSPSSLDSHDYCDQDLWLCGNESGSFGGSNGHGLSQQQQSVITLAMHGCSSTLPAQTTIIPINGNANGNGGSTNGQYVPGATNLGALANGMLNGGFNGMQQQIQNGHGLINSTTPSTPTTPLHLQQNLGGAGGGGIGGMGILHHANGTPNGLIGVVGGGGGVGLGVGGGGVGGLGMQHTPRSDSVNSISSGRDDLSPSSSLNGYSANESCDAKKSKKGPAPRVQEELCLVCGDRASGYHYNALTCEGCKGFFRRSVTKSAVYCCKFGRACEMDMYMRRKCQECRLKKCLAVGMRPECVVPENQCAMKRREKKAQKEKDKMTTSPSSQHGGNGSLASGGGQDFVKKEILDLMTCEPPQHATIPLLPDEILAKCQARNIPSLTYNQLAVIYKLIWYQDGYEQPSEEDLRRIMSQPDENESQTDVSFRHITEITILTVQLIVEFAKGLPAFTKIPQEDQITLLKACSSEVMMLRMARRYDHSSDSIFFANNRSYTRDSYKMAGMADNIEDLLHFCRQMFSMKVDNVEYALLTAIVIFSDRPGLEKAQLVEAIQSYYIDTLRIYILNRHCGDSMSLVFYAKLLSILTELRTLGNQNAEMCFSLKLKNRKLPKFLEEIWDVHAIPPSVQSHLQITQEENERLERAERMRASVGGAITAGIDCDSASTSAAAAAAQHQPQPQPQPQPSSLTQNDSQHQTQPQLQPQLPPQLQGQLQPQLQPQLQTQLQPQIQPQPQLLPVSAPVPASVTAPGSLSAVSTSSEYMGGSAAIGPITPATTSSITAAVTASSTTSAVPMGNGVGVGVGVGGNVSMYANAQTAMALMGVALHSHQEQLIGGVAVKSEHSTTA

DHR38 = details: cultured larval organs; cited from earlier work
PXR = target: T2, PXR (Homo sapiens, UniProt O75469); details: cited from earlier work
T2 sequence (O75469 1-434): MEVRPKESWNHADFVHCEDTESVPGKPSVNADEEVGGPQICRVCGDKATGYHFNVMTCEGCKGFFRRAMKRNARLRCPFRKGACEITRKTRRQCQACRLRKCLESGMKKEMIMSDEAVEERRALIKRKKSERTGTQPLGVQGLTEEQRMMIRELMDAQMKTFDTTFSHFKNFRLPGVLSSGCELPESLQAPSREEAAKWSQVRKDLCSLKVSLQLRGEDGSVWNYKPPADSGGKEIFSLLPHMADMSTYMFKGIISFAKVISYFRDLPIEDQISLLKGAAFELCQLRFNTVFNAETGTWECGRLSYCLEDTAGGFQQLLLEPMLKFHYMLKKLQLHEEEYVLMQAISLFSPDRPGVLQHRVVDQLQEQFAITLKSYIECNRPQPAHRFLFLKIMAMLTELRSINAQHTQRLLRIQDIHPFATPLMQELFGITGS

SMILES	Activation of the GAL4-USP fusion protein (GAL4-USP fusion protein)	Activation of DHR38 in the GAL4-LBD system (DHR38)	Action on PXR (PXR)
CC(C)(O)CC[C@@H](O)[C@](C)(O)[C@H]1CC[C@@]2(O)C3=CC(=O)[C@@H]4C[C@@H](O)[C@@H](O)C[C@]4(C)[C@H]3CC[C@]12C [20-hydroxyecdysone]	potent activator	not	
COc1cc2c(cc1O)CCN[C@]21CS[C@@H]2c3c(OC(C)=O)c(C)c4c(c3[C@H](COC1=O)N1[C@@H]2[C@H]2c3c(cc(C)c(OC)c3O)C[C@@H]([C@@H]1O)N2C)OCO4 [ecteinascidin-743]			antagonist
